Here are results for 26 molecules from PubChem BioAssay AID624409 (The Scripps Research Institute Molecular Screening Center, 2012).

Calls of active or inactive are those of the source.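 The calls were made as follows: active = IC50 at or below 10 µM; inactive = IC50 above 10 µM.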

The target in the assay is Orexin/Hypocretin receptor type 1 (Homo sapiens) (UniProt O43613). Put plainly: OX1R antagonist potency, calcium flux, late-stage follow-up, fluorescence, Fluo-8, CHO cells, powder samples (AID 624409). As to conditions: Fluo-8 calcium fluorescence, orexin A.
Chain of Orexin/Hypocretin receptor type 1 (Homo sapiens) (O43613 whole entry, looked up): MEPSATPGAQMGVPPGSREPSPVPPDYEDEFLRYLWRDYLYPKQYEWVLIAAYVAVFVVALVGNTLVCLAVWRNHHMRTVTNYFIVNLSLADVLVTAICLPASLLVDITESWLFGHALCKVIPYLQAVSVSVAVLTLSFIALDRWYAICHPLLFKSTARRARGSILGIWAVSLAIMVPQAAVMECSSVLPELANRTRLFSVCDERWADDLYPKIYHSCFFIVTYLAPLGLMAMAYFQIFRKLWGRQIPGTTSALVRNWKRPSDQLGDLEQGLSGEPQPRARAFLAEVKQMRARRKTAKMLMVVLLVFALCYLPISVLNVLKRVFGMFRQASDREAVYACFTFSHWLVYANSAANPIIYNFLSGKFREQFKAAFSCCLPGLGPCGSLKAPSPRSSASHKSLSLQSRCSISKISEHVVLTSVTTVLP
For `CCN(CC)c1ccc(NC(=O)Cn2c(C(C)NC(=O)c3ccccc3)nc3ccccc32)cc1` (stereo unspecified), the IC50 is > 59.6 µM (inactive). The same measure for `Cc1cc(Cl)ccc1OCCCC(=O)NCCN1C(=O)S/C(=C\c2cccnc2)C1=O`: 1.38 µM. In the case of `CC(=C/c1ccccc1)/C=C1/SC(N2CCOCC2)=NC1=O`, the IC50 was 9.14 µM.

`Cc1ccc(-c2csc3nnc(SCC(=O)Nc4nsc(-c5ccccc5)n4)n23)cc1`: the IC50 entry was “inactive”. As to `COc1ccc(OC)c(S(=O)(=O)NCC(c2ccco2)N2CCc3ccccc32)c1` (stereo unspecified), the IC50 is 7.12 µM. With `O=C(CN1C(=O)/C(=C\c2cccc(Br)c2)Oc2ccccc21)NCC1CCCO1` (stereo unspecified), the IC50 is 5.01 µM. Take `CCn1c(SCC(=O)Nc2ccc3c(c2)c2ccccc2n3CC)nnc1-c1cnccn1`: the IC50 entry is “inactive”. The same measure for `COc1cccc(/C=C2/Oc3ccccc3N(CC(=O)NCC3CCCO3)C2=O)c1` (stereo unspecified): 3.8 µM. The same measure for `Cc1cccc(NC(=O)[C@@H]2CCCN2S(=O)(=O)c2ccc(Cl)cc2)c1`: > 19.9 µM (inactive); for `Cc1c(NS(=O)(=O)c2cccc(C(=O)OCC(=O)N(C)C3CCCCC3)c2)c(=O)n(-c2ccccc2)n1C`: “inactive”. Turning to `O=c1cc(CN2CC(O)Cc3ccc4ccccc4c32)nc2sccn12` (stereo unspecified), the IC50 was > 19.9 µM (inactive). On to `CCOC(=O)N1CCN(C(=O)CSc2ccc(-c3ccccc3)nn2)CC1`, for which the IC50 was > 59.6 µM (inactive).

Regarding `O=C(CSc1ccc(-c2ccccc2)nn1)c1cccs1`, the IC50 was 7.92 µM. The figure for `Cc1ccccc1NC(=O)C1CCCN1S(=O)(=O)c1ccccc1C(F)(F)F` (stereo unspecified) is > 19.9 µM (inactive); for `Fc1cccc(Nc2nc3ccccc3n3cnnc23)c1` it is > 59.6 µM (inactive); for `COCCCNC(=O)CCC(=O)NNc1nc2ccccc2c2nc(-c3ccccc3)nn12` it is “inactive”. The figure for `CSc1cccc(N2CC(C(=O)NCCN3C(=O)S/C(=C\c4cccnc4)C3=O)CC2=O)c1` (stereo unspecified) is > 19.9 µM (inactive); for `Cc1noc(C)c1COc1ccc(C(=O)OCC(=O)N2CC(=O)Nc3ccccc32)cc1` it is > 19.9 µM (inactive); for `COc1cc(OC)c(-c2nc3ccccc3s2)cc1OC` it is “inactive”. Turning to `CCOc1ccccc1C(=O)Nc1ccc2nc3n(c(=O)c2c1)CCCCC3`, the IC50 entry was “inactive”.

As for `CCSC1=C(C#N)C(c2ccccc2Cl)C(C(=O)c2cccs2)C(O)(C(F)(F)F)N1` (stereo unspecified), the IC50 is 4.97 µM. `Cc1cccc(C=NNC(=O)c2cc3c(s2)-c2ccccc2CC3)c1`: the half-inhibitory concentration (IC50) was 2.67 µM. Regarding `CN(N=Cc1cc([N+](=O)[O-])ccc1O)c1ccccc1`, the IC50 was > 59.6 µM (inactive).

With `CCc1cc(C(=O)OCC(=O)N2CCC(c3ccccc3)=N2)sc1C`, the IC50 result was “inactive”. With `CCc1cc2c(SCC(=O)N(CC)c3c(N)n(Cc4ccccc4)c(=O)[nH]c3=O)ncnc2s1`, the IC50 was > 59.6 µM (inactive). In the case of `CSc1cccc(NC(=O)C2CCCN2S(=O)(=O)c2ccc(Br)s2)c1` (stereo unspecified), the IC50 is 4.67 µM.
